Measured values: patent US20220017877A1, “BILIRUBIN OXIDASE ACTIVITY IMPROVING METHOD, AND BILIRUBIN OXIDASE PRODUCT” (OZEKI CORPORATION, priority 2018, published 2022)

Test: ABTS initial absorbance (A436) reduction rate (Test Example 3)
Type: physicochemical
Conditions: in one minute at 25° C.; 1 mM (single compound) or 0.011 g nitrogen element in 100 mL (composition); pH 8.5
Source text: In the present specification, the absorbance of a solution containing ABTS (ABTS solution), at a wavelength of 436 nm, is defined as an ABTS initial absorbance (A436). In the present specification, the ABTS initial absorbance (A436) reduction rate (%) of the activity improving agent is defined to be a reduction rate (%) of the absorbance of a mixed solution, which contains the above ABTS solution and the above activity improving agent, at a wavelength of 436 nm in one minute, with respect to the ABTS initial absorbance (A436) (100%). Note that the ABTS solution is a solution in which the concentration of ABTS is adjusted such that the absorbance (A436) at a wavelength of 436 nm is approximately 1.3 at an optical path length of 1.0 cm. The value “approximately 1.3” here is intended to mean a value in a range in which 1.3 is obtained by rounding the value to the first decimal place. Test Examples described later will explain specific methods for measuring the absorbance (A436) of the ABTS solution at a wavelength of 436 nm and the ABTS initial absorbance (A436) reduction rate (%) of the activity improving agent. ABTS is an abbreviation for 2,2′-azinobis(3-ethylbenzothiazoline-6-sulfonic acid).
In the present activity improving method, when the ABTS initial absorbance (A436) reduction rate (%) of the activity improving agent is measured, the concentration of the activity improving agent in the ABTS solution for measurement is set as follows: (a) the concentration is set to 1 mM, when the molecular weight of the activity improving agent is evident as in a case where the activity improving agent is made of a single compound; and (b) when the activity improving agent is a substance which is made of a composition having an inevident molecular weight, the content of nitrogen element is used as a reference and the concentration is set such that the content of nitrogen element derived from the activity improving agent is 0.011 g in 100 mL of the ABTS solution for measurement. Note that, in the above (b), the content of nitrogen element derived from the activity improving agent in the ABTS solution is a value calculated by the Kjeldahl method.
The following describes a specific evaluation method. ABTS employed was an ABTS manufactured by Roche Diagnostics K.K. Further, the ABTS was dissolved in a 50 mM glycine-KOH (pH 8.5) buffer so that the concentration of the ABTS became 2.0 mg/mL. An ABTS solution was thus prepared. The absorbance of the ABTS solution at a wavelength of 436 nm (ABTS initial absorbance (A436)) was measured at an optical path length of 1.0 cm, by using a molecular absorption spectrometer Spectra Max Plus 384 (manufactured by Molecular Devices Japan K.K.). As a result the absorbance was approximately 1.3. Next, 5 μL of an activity improving agent solution or a comparative substance solution was added to 195 μL of the ABTS solution, so that a reaction solution for evaluating ABTS (hereinafter, also referred to as “reaction solution A”) was prepared. […]

| Structure (SMILES) | A436 reduction rate (%) |
| --- | --- |
| O=C1O[C@H]([C@@H](O)CO)C(O)=C1O [L-ascorbic acid] | 87.81% |
| O=c1[nH]c(=O)c2[nH]c(=O)[nH]c2[nH]1 [Uric acid, uric acid] | 71.49% |
